Reference: PubChem BioAssay (NCI)
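Five concentrations, 48 hours, 96-well plates. Abbreviation: GI50, concentration required for 50% inhibition of growth. TGI marks complete inhibition of growth.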

Experiments:
Experiment in all cases: NCI-60 cell line screen, 48 h
786-0 renal = tested on: 786-0 renal
A498 renal = tested on: A498 renal
A549 NSCLC = tested on: A549 NSCLC
ACHN renal = tested on: ACHN renal
BT-549 breast = tested on: BT-549 breast
CAKI-1 renal = tested on: CAKI-1 renal
CCRF-CEM leukemia = tested on: CCRF-CEM leukemia
COLO 205 colon = tested on: COLO 205 colon
DU-145 prostate = tested on: DU-145 prostate
EKVX NSCLC = tested on: EKVX NSCLC
HCC-2998 colon = tested on: HCC-2998 colon
HCT-116 colon = tested on: HCT-116 colon
HCT-15 colon = tested on: HCT-15 colon
HL-60(TB) leukemia = tested on: HL-60(TB) leukemia
HOP-62 NSCLC = tested on: HOP-62 NSCLC
HOP-92 NSCLC = tested on: HOP-92 NSCLC
HS 578T breast = tested on: HS 578T breast
HT29 colon = tested on: HT29 colon
IGROV1 ovarian = tested on: IGROV1 ovarian
K-562 leukemia = tested on: K-562 leukemia
KM12 colon = tested on: KM12 colon
LOX IMVI melanoma = tested on: LOX IMVI melanoma
M14 melanoma = tested on: M14 melanoma
MALME-3M melanoma = tested on: MALME-3M melanoma
MCF7 breast = tested on: MCF7 breast
MDA-MB-231 breast = tested on: MDA-MB-231 breast
MDA-MB-435 = tested on: MDA-MB-435
MDA-MB-468 breast = tested on: MDA-MB-468 breast
MOLT-4 leukemia = tested on: MOLT-4 leukemia
NCI-H226 lung = tested on: NCI-H226 lung
NCI-H23 lung = tested on: NCI-H23 lung
NCI-H460 lung = tested on: NCI-H460 lung
NCI-H522 lung = tested on: NCI-H522 lung
NCI/ADR-RES ovarian = tested on: NCI/ADR-RES ovarian
OVCAR-3 ovarian = tested on: OVCAR-3 ovarian
OVCAR-4 ovarian = tested on: OVCAR-4 ovarian
OVCAR-5 ovarian = tested on: OVCAR-5 ovarian
OVCAR-8 ovarian = tested on: OVCAR-8 ovarian
PC-3 prostate = tested on: PC-3 prostate
RPMI-8226 leukemia = tested on: RPMI-8226 leukemia
RXF 393 renal = tested on: RXF 393 renal
SF-268 CNS = tested on: SF-268 CNS
SF-295 CNS = tested on: SF-295 CNS
SF-539 CNS = tested on: SF-539 CNS
SK-MEL-2 melanoma = tested on: SK-MEL-2 melanoma
SK-MEL-28 melanoma = tested on: SK-MEL-28 melanoma
SK-MEL-5 melanoma = tested on: SK-MEL-5 melanoma
SK-OV-3 ovarian = tested on: SK-OV-3 ovarian
SN12C renal = tested on: SN12C renal
SNB-19 CNS = tested on: SNB-19 CNS
SNB-75 CNS = tested on: SNB-75 CNS
SR leukemia = tested on: SR leukemia
SW-620 colon = tested on: SW-620 colon
T-47D breast = tested on: T-47D breast
TK-10 renal = tested on: TK-10 renal
U251 CNS = tested on: U251 CNS
UACC-257 melanoma = tested on: UACC-257 melanoma
UACC-62 melanoma = tested on: UACC-62 melanoma
UO-31 renal = tested on: UO-31 renal

## Cc1cccc(/C=C/c2ccc(NC(=S)NCCCCN(C)C)cc2)c1
786-0 renal
  GI50: 14.9 µM
  TGI: 30.1 µM
A498 renal
  GI50: 13.5 µM
  TGI: 27.4 µM
A549 NSCLC
  GI50: 18.4 µM
  TGI: 39.8 µM
ACHN renal
  GI50: 16.3 µM
  TGI: 29.9 µM
BT-549 breast
  GI50: 15.3 µM
  TGI: 29.9 µM
CAKI-1 renal
  GI50: 14.5 µM
  TGI: 27.9 µM
CCRF-CEM leukemia
  GI50: 11.7 µM
  TGI: 37.3 µM
COLO 205 colon
  GI50: 15.6 µM
  TGI: 33.5 µM
DU-145 prostate
  GI50: 15.1 µM
  TGI: 29.2 µM
EKVX NSCLC
  GI50: 16.2 µM
  TGI: 31.2 µM
HCC-2998 colon
  GI50: 15.1 µM
  TGI: 29.9 µM
HCT-116 colon
  GI50: 11 µM
  TGI: 29.6 µM
HCT-15 colon
  GI50: 11.9 µM
  TGI: 25.1 µM
HL-60(TB) leukemia
  GI50: 8.41 µM
  TGI: 29.7 µM
HOP-62 NSCLC
  GI50: 19 µM
  TGI: 37.9 µM
HOP-92 NSCLC
  GI50: 8.39 µM
  TGI: 24.3 µM
HS 578T breast
  GI50: 16.6 µM
  TGI: 38.4 µM
HT29 colon
  GI50: 5.38 µM
  TGI: 29.9 µM
IGROV1 ovarian
  GI50: 16.6 µM
  TGI: 31.2 µM
K-562 leukemia
  GI50: 3.96 µM
  TGI: > 100 µM
KM12 colon
  GI50: 16.5 µM
  TGI: 31.9 µM
LOX IMVI melanoma
  GI50: 11.6 µM
  TGI: 25.4 µM
M14 melanoma
  GI50: 15.4 µM
  TGI: 31.6 µM
MALME-3M melanoma
  GI50: 15.8 µM
  TGI: 29.6 µM
MCF7 breast
  GI50: 11.8 µM
  TGI: 27.5 µM
MDA-MB-231 breast
  GI50: 12.9 µM
  TGI: 26.6 µM
MDA-MB-435
  GI50: 13.9 µM
  TGI: 27.7 µM
MDA-MB-468 breast
  GI50: 12.7 µM
  TGI: 26.6 µM
MOLT-4 leukemia
  GI50: 13.4 µM
  TGI: 37.5 µM
NCI-H226 lung
  GI50: 14.9 µM
  TGI: 31.2 µM
NCI-H23 lung
  GI50: 16.1 µM
  TGI: 31.2 µM
NCI-H460 lung
  GI50: 12.8 µM
  TGI: 27.3 µM
NCI-H522 lung
  GI50: 15.9 µM
  TGI: 33.5 µM
NCI/ADR-RES ovarian
  GI50: 16.3 µM
  TGI: 32.3 µM
OVCAR-3 ovarian
  GI50: 12.7 µM
  TGI: 26.1 µM
OVCAR-4 ovarian
  GI50: 14.8 µM
  TGI: 29 µM
OVCAR-5 ovarian
  GI50: 15.5 µM
  TGI: 29.5 µM
OVCAR-8 ovarian
  GI50: 18.9 µM
  TGI: 38.1 µM
PC-3 prostate
  GI50: 14.2 µM
  TGI: 32.2 µM
RPMI-8226 leukemia
  GI50: 20.1 µM
  TGI: 72.4 µM
RXF 393 renal
  GI50: 11.3 µM
  TGI: 24.2 µM
SF-268 CNS
  GI50: 13.8 µM
  TGI: 28.5 µM
SF-295 CNS
  GI50: 16.2 µM
  TGI: 31.5 µM
SF-539 CNS
  GI50: 13.4 µM
  TGI: 26.3 µM
SK-MEL-2 melanoma
  GI50: 18.5 µM
  TGI: 34.9 µM
SK-MEL-28 melanoma
  GI50: 15.6 µM
  TGI: 29.3 µM
SK-MEL-5 melanoma
  GI50: 15.9 µM
  TGI: 29.4 µM
SK-OV-3 ovarian
  GI50: 19.7 µM
  TGI: 36.4 µM
SN12C renal
  GI50: 14.9 µM
  TGI: 29 µM
SNB-19 CNS
  GI50: 16.1 µM
  TGI: 29.8 µM
SNB-75 CNS
  GI50: 9.05 µM
  TGI: 21.9 µM
SR leukemia
  GI50: 12.2 µM
  TGI: 39.2 µM
SW-620 colon
  GI50: 14.8 µM
  TGI: 29.5 µM
T-47D breast
  GI50: 16.9 µM
  TGI: 36.9 µM
TK-10 renal
  GI50: 20.7 µM
  TGI: 38.5 µM
U251 CNS
  GI50: 16.1 µM
  TGI: 33.7 µM
UACC-257 melanoma
  GI50: 18.1 µM
  TGI: 34.8 µM
UACC-62 melanoma
  GI50: 15.9 µM
  TGI: 29.6 µM
UO-31 renal
  GI50: 14.2 µM
  TGI: 27.3 µM
